According to patent US20200172473A1, “DUAL MODULATORS OF FARNESOID X RECEPTOR AND SOLUBLE EPOXIDE HYDROLASE” (JOHANN WOLFGANG GOETHE-UNIVERSITÄT FRANKFURT AM MAIN, priority 2017, published 2020):

What was measured:
[1] = target: T1, cellular sEH (HepG2 cell homogenates) (Homo sapiens, UniProt P34913); details: 10 μM (positive control); DMSO 63±16, blank 499±123
T1 sequence (P34913 1-555): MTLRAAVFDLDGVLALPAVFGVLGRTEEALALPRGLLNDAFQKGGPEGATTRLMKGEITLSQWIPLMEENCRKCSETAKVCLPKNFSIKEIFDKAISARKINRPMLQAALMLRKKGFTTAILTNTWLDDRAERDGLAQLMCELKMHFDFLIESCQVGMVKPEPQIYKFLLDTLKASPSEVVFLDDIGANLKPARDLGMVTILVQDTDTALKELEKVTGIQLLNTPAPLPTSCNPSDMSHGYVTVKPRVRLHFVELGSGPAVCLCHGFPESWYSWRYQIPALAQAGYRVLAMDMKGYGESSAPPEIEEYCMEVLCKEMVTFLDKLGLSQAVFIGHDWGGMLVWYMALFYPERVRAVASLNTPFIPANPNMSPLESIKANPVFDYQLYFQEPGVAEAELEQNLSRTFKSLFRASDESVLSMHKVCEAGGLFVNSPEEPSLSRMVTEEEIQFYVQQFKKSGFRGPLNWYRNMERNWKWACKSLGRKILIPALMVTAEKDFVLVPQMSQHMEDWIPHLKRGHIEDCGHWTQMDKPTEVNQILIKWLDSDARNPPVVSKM
Description: 25 ng (+)14(15)-EET-d11 (Cayman Chemical, Ann Arbor, USA) was added and incubation was continued for additional to min at 37° C. A blank test was performed with PBS (containing 0.1 mg/ml BSA) treated likewise. The reactions were stopped by adding 100 μl of ice cold methanol. After centrifugation (2000 rpm, 4° C., 5 min), supernatants were analyzed by LC-MS/MS and the amounts of (±)14(15)-EET-d11 and the corresponding (±)14(15)-DHET-d11 were determined.

human FXR = target: T2, human FXR (Homo sapiens, UniProt Q96RI1); test: full-length FXR reporter gene (transactivation) assay in HeLa cells; format: cell-based; details: for Emax: HeLa, read-out: FXR activation max. rel. activation (converted); for EC50: full-length FXR reporter gene assay, HeLa cells, read-out: FXR activation EC50
T2 construct: characterized in a full-length (fl) FXR reporter gene assay in HeLa cells; expressed in transfected cells; host or cells: HeLa
T2 sequence (Q96RI1 1-486): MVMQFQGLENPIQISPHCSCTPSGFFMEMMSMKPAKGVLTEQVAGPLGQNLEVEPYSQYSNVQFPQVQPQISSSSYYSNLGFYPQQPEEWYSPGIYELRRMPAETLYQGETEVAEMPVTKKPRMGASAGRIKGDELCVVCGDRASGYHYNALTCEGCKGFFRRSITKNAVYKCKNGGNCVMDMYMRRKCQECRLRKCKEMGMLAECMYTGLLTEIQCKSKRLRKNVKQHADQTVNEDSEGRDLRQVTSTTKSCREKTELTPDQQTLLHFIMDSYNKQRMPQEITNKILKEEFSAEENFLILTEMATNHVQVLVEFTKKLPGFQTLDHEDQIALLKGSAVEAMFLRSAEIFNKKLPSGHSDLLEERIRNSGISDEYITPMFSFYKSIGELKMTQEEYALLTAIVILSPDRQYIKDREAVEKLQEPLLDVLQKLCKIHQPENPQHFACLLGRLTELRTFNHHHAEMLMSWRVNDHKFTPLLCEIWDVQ
T2 sequence (P19793 1-462 partner): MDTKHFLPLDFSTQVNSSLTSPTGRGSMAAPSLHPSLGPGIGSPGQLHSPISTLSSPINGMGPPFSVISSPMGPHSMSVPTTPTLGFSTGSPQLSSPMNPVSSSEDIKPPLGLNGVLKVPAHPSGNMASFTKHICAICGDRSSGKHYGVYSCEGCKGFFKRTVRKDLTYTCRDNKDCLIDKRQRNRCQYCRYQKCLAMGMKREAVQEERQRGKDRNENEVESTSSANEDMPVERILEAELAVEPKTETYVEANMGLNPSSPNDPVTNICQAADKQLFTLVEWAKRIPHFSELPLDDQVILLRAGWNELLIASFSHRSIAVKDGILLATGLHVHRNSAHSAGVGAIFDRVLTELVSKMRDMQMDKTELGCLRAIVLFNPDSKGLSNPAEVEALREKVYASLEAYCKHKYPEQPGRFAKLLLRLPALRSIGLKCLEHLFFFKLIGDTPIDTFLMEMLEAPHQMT
From the text: (§1) This assay is based on a reporter construct containing a firefly luciferase under the control of the FXR response element from bile salt export protein (BSEP). FXR and its hetero dimer partner retinoid X receptor (RXR) as expression constructs under the control of a CMV promoter as well as a constitutively expressed renilla luciferase (SV40 promoter) for normalization and toxicity control were co-transfected. […] The sEH inhibitory potency of the test compounds was quantified in a fluorescence-based assay using recombinant enzyme and the fluorogenic sEH substrate PHOME^37 that is hydrolyzed to a fluorescent 6-methoxynaphtaldehyde by sEH.
Plasmids: pcDNA3-hFXR contains the sequence of human FXR and was already published elsewhere.^47 pGL3 basic (Promega Corporation, Fitchburg, Wis., USA) was used as a reporter plasmid, with a shortened construct of the promotor of the bile salt export protein (BSEP) cloned into the SacI/NheI cleavage site in front of the luciferase gene.^48 pRL-V40 (Promega) was transfected as a control for normalization of transfection efficiency and cell growth. pSG5-hRXR was already published elsewhere as well.^49
Assay procedure: HeLa cells were grown in DMEM high glucose supplemented with 10% FCS, sodium pyruvate (1 mM), penicillin (100 U/mL) and streptomycin (100 μg/mL) at 37° C. and 5% CO2. […] Transient transfection of HeLa cells with BSEP-pGL3, pRL-SV40 and the expression plasmids pcDNA3-hFXR and pSG5-hRXR was carried out using calcium phosphate transfection method. […] Each concentration was tested in triplicate wells and each experiment was repeated independently at least three times. […] Luminescence was measured with a Tecan Infinite M200 luminometer (Tecan Deutschland GmbH, Crailsheim, Germany). Normalization of transfection efficiency and cell growth was done by division of firefly luciferase data by renilla luciferase data multiplied by 1000 resulting in relative light units (RLU). Fold activation was obtained by dividing the mean RLU of the tested compound at a respective concentration by the mean RLU of untreated control. […] EC50 and standard error of the mean values were calculated with the mean relative activation values of at least three independent experiments by SigmaPlot 10.0 (Systat Software GmbH, Erkrath, Germany) using a four parameter logistic regression.

aqueous solubility = format: physicochemical; details: LLOQ 0.1 μg/mL
recombinant human sEH = target: T3, recombinant human sEH (Homo sapiens, UniProt P34913); test: fluorescence-based sEH activity assay with PHOME substrate; format: biochemical; details: recombinant human sEH, PHOME; read-out: sEH inhibition IC50
T3 sequence (P34913 1-555): T1 sequence (P34913 1-555)
From the text: as §1
The sEH inhibitory potency of the compounds were determined in a fluorescence-based 96-well sEH activity assay using recombinant human enzyme^50,51. Non-fluorescent PHOME (3-phenylcyano-(6-methoxy-2-naphthalenyl)methyl ester 2-oxiraneacetic acid; Cayman Chemicals) which can be hydrolyzed by the sEH to fluorescent 6-methoxynaphthaldehyde served as substrate. Recombinant human sEH (in Bis-Tris buffer, pH 7, with 0.1 mg/mL BSA containing a final concentration of 0.01% Triton-X 100) was pre-incubated with test compounds (in DMSO, final DMSO concentration: 1%) for 30 min at room temperature. […] A blank control (no protein and no compound) as well as a positive control (no compound) were executed. All experiments were conducted in triplicate and repeated in at least three independent experiments. For IC50 calculation, dose-response curves of increasing compound concentrations were recorded.

[2] = test system: PPARγ target genes CD36 and FAM3A; test: PPARγ target gene mRNA quantification (qRT-PCR) in HepG2 cells; format: cell-based; details: HepG2, 1 μM

Structure (SMILES)	Emax (human FXR)	IC50 (recombinant human sEH)	EC50 (human FXR)	further results
O=C(Nc1ccc(I)cc1)NC1CCCCC1 [CIU, reference compound]	–	–	–	(±)14(15)-EET-d11/(±)14(15)-DHET-d11 ratio [1]: 519±55; activity in FXR reporter gene assay (human FXR; 10 μM): no activity
CC(C)(C)c1ccc(C(=O)NCc2ccc(NC(=O)C(F)(F)F)cc2Cl)cc1 [compound 56]	21%	–	–	aqueous solubility (aqueous solubility): < 0.1 µg/mL
CC(C)(C)c1ccc(C(=O)NCc2ccc(NS(C)(=O)=O)cc2Cl)c(O)c1 [compound 77, 4-(tert-Butyl-2-hydroxy)-N-(2-chloro-4-(methylsulfonamido)benzyl)benzamide]	–	0.38 ± 0.05 µM	–	FXR activation (result in words) (human FXR): antagonistic
CC(C)(C)c1ccc(C(=O)NCc2ccc(NS(C)(=O)=O)cc2Cl)cc1O [compound 78, 4-(tert-Butyl-3-hydroxy)-N-(2-chloro-4-(methylsulfonamido)benzyl)benzamide]	24%	0.016 ± 0.0006 µM	0.003 ± 1e-06 µM	–
CC(C)(C)c1ccc(C(=O)NCc2ccc(NS(C)(=O)=O)cc2C(F)(F)F)cc1 [compound 80, 4-(tert-Butyl)-N-(2-trifluoromethyl-4-(methylsulfonamido)benzyl)benzamide]	19%	0.002 ± 8e-05 µM	1.2 ± 0.18 µM	–
CC(C)S(=O)(=O)Nc1ccc(CNC(=O)c2ccc(C(C)(C)C)cc2)c(Cl)c1 [compound 81, 4-(tert-Buty)-N-(2-chloro-4-(isopropylsulfonamide)benzyl)-benzamide]	11%	0.011 ± 0.0003 µM	0.42 ± 0.02 µM	–
CCS(=O)(=O)Nc1ccc(CNC(=O)c2ccc(C(C)(C)C)cc2)c(Cl)c1 [compound 82, 4-(tert-Butyl)-N-(2-chloro-4-(ethylsulfonamido)benzyl)-benzamide]	23%	0.006 ± 0.0005 µM	0.49 ± 0.05 µM	–
CN(C)c1ccc(C(=O)NCc2ccc(NS(C)(=O)=O)cc2Cl)cc1 [compound 83, 4-(Dimethylamino)-N-(2-chloro-4-(methylsulfonamido)benzyl)benzamide]	23%	0.045 ± 0.002 µM	1.46 ± 0.023 µM	–
CS(=O)(=O)Nc1ccc(CNC(=O)c2ccc(C3(C(F)(F)F)CC3)cc2)c(Cl)c1 [compound 84, 4-((1-Trifluoromethyl)cycloprop-1-yl)-N-(2-chloro-4-(methylsulfonamido)benzyl)benzamide]	31%	0.004 ± 0.0004 µM	0.54 ± 0.02 µM	–
CCc1ccc(CCOc2ccc(CC3SC(=O)NC3=O)cc2)nc1 (centres unmarked) [pioglitazone, reference compound]	–	–	–	CD36 mRNA expression compared to vehicle set as 100% [2]: 353±43%; FAM3A mRNA expression compared to vehicle set as 100% [2]: 310±66%
